Data: ChEMBL document CHEMBL3399943, “In vitro and in silico evaluation of twelve newly-synthesized 1-acetamide-5-methoxy-2-oxindoles as 5-Ht₇ receptor ligands” (Bioorg Med Chem Lett, 2015)

Target: 5-hydroxytryptamine receptor 7 (Homo sapiens) (UniProt P34969)
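Further: displacement of bound [3H]-SB269970 at the 5-HT7 receptor (origin unspecified), test concentration 10 µM, 60 min incubation.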

Sequence of 5-hydroxytryptamine receptor 7 (Homo sapiens) (P34969 whole entry): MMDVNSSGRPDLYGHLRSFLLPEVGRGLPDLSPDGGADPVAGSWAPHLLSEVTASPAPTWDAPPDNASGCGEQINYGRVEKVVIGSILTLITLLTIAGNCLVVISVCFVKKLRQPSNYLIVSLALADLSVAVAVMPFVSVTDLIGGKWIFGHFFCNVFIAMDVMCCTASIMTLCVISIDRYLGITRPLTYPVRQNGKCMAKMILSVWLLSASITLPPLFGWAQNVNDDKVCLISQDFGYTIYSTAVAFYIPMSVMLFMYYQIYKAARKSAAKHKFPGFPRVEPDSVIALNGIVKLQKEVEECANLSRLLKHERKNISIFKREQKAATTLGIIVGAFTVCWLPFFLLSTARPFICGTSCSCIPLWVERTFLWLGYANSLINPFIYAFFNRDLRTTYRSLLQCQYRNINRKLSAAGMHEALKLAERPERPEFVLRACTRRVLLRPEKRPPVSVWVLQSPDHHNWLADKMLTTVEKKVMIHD
Description: Displacement of [3H]-SB269970 from 5-HT7 receptor (unknown origin) at 10 uM after 60 mins

log(activity)	SMILES
1.04	COc1ccc2c(c1)CC(=O)N2C(C(=O)NC1CCCCC1)C(C)(C)C (configuration not stated)
0.954	COc1ccc2c(c1)CC(=O)N2C(C(=O)Nc1c(C)cccc1C)C(C)(C)C (configuration not stated)
1.15	COc1ccc2c(c1)CC(=O)N2C(C(=O)NC(C)(C)C)C(C)(C)C (configuration not stated)
1.2	COc1ccc2c(c1)CC(=O)N2C(C(=O)NC(C)(C)C)c1ccc(Cl)cc1 (configuration not stated)
1.3	COc1ccc2c(c1)CC(=O)N2C(C(=O)NC1CCCCC1)c1ccc(Cl)cc1 (configuration not stated)
1.18	COc1ccc2c(c1)CC(=O)N2C(C(=O)NC(C)(C)C)c1ccccc1 (configuration not stated)
1.25	COc1ccc2c(c1)CC(=O)N2C(C(=O)Nc1c(C)cccc1C)c1ccc(Cl)cc1 (configuration not stated)
1.38	COc1ccc2c(c1)CC(=O)N2C(C(=O)Nc1c(C)cccc1C)C(C)C (configuration not stated)
1	COc1ccc2c(c1)CC(=O)N2C(C(=O)NC1CCCCC1)c1ccccc1 (configuration not stated)
1.48	COc1ccc2c(c1)CC(=O)N2C(C(=O)NC(C)(C)C)C(C)C (configuration not stated)
1.2	COc1ccc2c(c1)CC(=O)N2C(C(=O)NC1CCCCC1)C(C)C (configuration not stated)
1.2	COc1ccc2c(c1)CC(=O)N2C(C(=O)Nc1c(C)cccc1C)c1ccccc1 (configuration not stated)
